According to PMC12406685, “Thiazole substitution of a labile amide bond—a new option toward antiplasmodial pantothenamide-mimics” (Antimicrobial Agents and Chemotherapy, 2025):

Key:
HsPanK3 = target: T1, HsPanK3 (Homo sapiens, UniProt Q9H999); test: HsPanK kinetic assay (pyruvate kinase/lactic dehydrogenase coupled, NADH at 340 nm); type: biochemical; design: catalytic core domain of human PanK3 (amino acid residues 12–368); made in house; host or cells: E. coli BL21(DE3); settings: for Substrate inhibition of HsPanK3: at rising substrate concentration (0–2,000 µM)
T1 sequence (Q9H999 12-368): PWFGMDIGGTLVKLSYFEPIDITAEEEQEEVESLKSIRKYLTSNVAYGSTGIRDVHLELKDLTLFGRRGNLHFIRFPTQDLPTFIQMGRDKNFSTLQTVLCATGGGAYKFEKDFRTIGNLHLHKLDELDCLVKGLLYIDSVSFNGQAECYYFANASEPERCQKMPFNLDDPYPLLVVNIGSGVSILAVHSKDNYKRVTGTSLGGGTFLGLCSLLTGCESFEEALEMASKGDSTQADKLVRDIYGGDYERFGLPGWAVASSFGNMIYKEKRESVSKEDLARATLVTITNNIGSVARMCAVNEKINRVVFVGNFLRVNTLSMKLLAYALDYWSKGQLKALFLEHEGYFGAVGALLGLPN
Protocol: The gene encoding the catalytic core domain of human PanK3 (amino acid residues 12–368) was synthesized and cloned into the pET28a(+) expression vector using the NdeI and BamHI restriction sites to produce an N-terminal His6-tagged protein (Bio Basic Inc.). The plasmid was transformed into E. coli BL21(DE3) cells, which were cultured in Terrific Broth (TB) medium containing 50 µg/mL kanamycin at 37°C. When the culture reached an optical density at 600 nm (OD600) of 0.6, protein expression was induced by adding 1.0 mM isopropyl β-D-thiogalactoside (IPTG), followed by incubation at 18°C for 17–18 h. The cells were then harvested and resuspended in lysis buffer (20 mM Tris-HCl, pH 7.5, 500 mM NaCl, 5 mM imidazole, 5% [vol/vol] glycerol) supplemented with 1 mM PMSF (phenylmethylsulfonyl fluoride) and lysozyme (5 mg/g of the cell pellet). The suspension was then sonicated on ice, and the resulting lysate was centrifuged twice at 54,000 × g for 30 min at 4°C.
The clarified supernatant was incubated with Ni-NTA resin (Cytiva) pre-equilibrated with lysis buffer containing 5 mM imidazole at 4°C. After binding, the resin was washed with lysis buffer containing 30 mM imidazole, then eluted with lysis buffer containing 250 mM imidazole. The eluted HsPanK3 protein was dialyzed against storage buffer (20 mM Tris-HCl, pH 7.5, 200 mM NaCl, 5% [vol/vol] glycerol) and concentrated. The purified protein was stored at −80°C. Protein purity was assessed using SDS-PAGE and deemed >50% (Fig. S4).
The enzyme assay was adapted from a previously described method ([103]), which links the production of ADP to the consumption of NADH through the enzymatic activities of pyruvate kinase and lactic dehydrogenase. Reactions were conducted in 96-well microtiter plates, and the decrease in NADH concentration was measured at 340 nm at 30 s intervals after incubation at 30°C. Each reaction mixture (200 µL) contained the desired compound (substrate) at variable concentrations (0–2,000 µM), ATP (1.5 mM), NADH (0.3 mM), phospho(enol)pyruvate (2.0 mM), MgCl2 (10 mM), KCl (20 mM), a commercial pyruvate kinase/lactic dehydrogenase mixture (12 units, Sigma-Aldrich), and pantothenate kinase (0.48 µM) in 50 mM Tris–HCl buffer (pH 7.6). The reaction was initiated with the addition of ATP. The kinetic parameters were determined by fitting the rate data into the Michaelis–Menten equation using GraphPad Prism 8.0 with nonlinear regressions. Data were collected from three independent experiments, each performed in triplicate to verify the trends and optimize the selected concentrations. The kinetic parameters were calculated from the most complete triplicate set of data, and errors represent SEM.

[1] = test system: human hepatoblastoma cells (HepG2); test: In vitro HepG2 proliferation assay (Incucyte confluency); type: cell-based; settings: for Proliferation (%) of HepG2 with 200 µM Cpd and 1 µM Pan: 200 µM compound, 72 h, mean ± range/2 of two experiments; for Proliferation (%) of HepG2 with 200 µM Cpd and 1 µM Pan / Effect on HepG2 cells, in words: RPMI-1640 with 1 µM pantothenate
Protocol: HFF cells were maintained in vitro in DMEM supplemented with 10% (vol/vol) newborn calf serum, 50 units/mL penicillin, 50 µg/mL streptomycin, 10 µg/mL gentamicin, 0.2 mM L-glutamine, and 0.25 µg/mL amphotericin B, as previously described ([99]). HepG2 cells were maintained in RPMI-1640 medium (Thermo Fisher Scientific, catalogue number 72400120) supplemented with 10% (vol/vol) fetal bovine serum, 50 units/mL penicillin, and 50 µg/mL streptomycin.
In vitro HepG2 proliferation assays were performed similarly to the HFF proliferation assays with modifications. Confluent HepG2 cells were harvested by treatment with 1 × trypsin–EDTA and diluted in RPMI-1640 supplemented with 10% (vol/vol) fetal bovine serum. Assays were set up in 96-well microtiter plates with 20,000 cells per well. Puromycin (10 µM) was used as a non-proliferation control, and 0.1% (vol/vol) DMSO served as a 100% proliferation control. The plates were incubated at 37°C in a CO2 incubator for 72 h, and the Incucyte Live-Cell Analysis System (Essen BioScience) was used to capture cellular changes and assess cell growth in each well over time as described above for the HFF proliferation assays. The bottom of the curve was constrained to 0 when fitting for HepG2 proliferation assays using GraphPad Prism.

[2] = relative to natural substrate pantothenate

Row | Structure (SMILES) | Ki (HsPanK3) [mM] | kcat of HsPanK3 compared with that of pantothenate, in words (HsPanK3) | Substrate inhibition of HsPanK3 (HsPanK3) | Fold higher Km of HsPanK3 for compound compared to pantothenate (HsPanK3; [2]) [fold] | Proliferation (%) of HepG2 with 200 µM Cpd and 1 µM Pan [1] [%] | Effect on HepG2 cells, in words ([1]; 200 µM) | inhibition at 200 µM ([1]; Homo sapiens, HepG2, 200 µM) [%] | Fold lower kcat/Km of HsPanK3 compared to pantothenate (HsPanK3; [2])
1 | CC(C)(CO)[C@@H](O)C(=O)NCc1csc(-c2ccccc2)n1 [Compound 2e] | 4.34 | same as | Substrate inhibition | 2.8 | 91 ± 4 | completely inactive |  | 
2 | CC(C)(CO)[C@@H](O)C(=O)NCc1nc(CCc2ccccc2)cs1 [Compound 1e] |  | slightly lower |  |  | 55 ± 1 | some low-level toxicity | ~50 | 
3 | CCCCCc1csc(CNC(=O)[C@H](O)C(C)(C)CO)n1 [Compound 1c] |  | same as |  |  | 62 ± 7 | some low-level toxicity |  | ~ 3 fold
4 | CC(C)(CO)[C@@H](O)C(=O)NCc1cnc(-c2ccccc2)s1 [Compound 3f] |  | slightly higher |  |  | 89 ± 2 | completely inactive |  | ~ 3 fold
5 | CC(C)(CO)[C@@H](O)C(=O)NCc1csc(Cc2ccccc2)n1 [Compound 2c] | 2.65 | same as | Substrate inhibition |  | 93 ± 2 | completely inactive |  | ~ 3 fold
6 | CCCCc1csc(CNC(=O)[C@H](O)C(C)(C)CO)n1 [Compound 1a] |  | same as |  |  | 71 ± 11 | some low-level toxicity |  | 
